Laboratory results published in patent US20190022152A1, “MICROBIOME RESPONSE TO AGENTS” (Yeda Research and Development Co., Ltd., priority 2014, published 2019).
Where two headings read alike, the source gives them in different places.

System: fecal microbiota
Conditions: for Fold change (week 11/week 0) in relative species abundance: fecal samples, 11 weeks consumption
Description: Illumina sequence reads were mapped to the human microbiome reference genome database of the Human Microbiome Project [www(dot)hmpdacc(dot)org/HMREFG/^32], and to a gut microbial gene catalogue^33 using GEM mapper^58 with the following parameters: • -m 3 -s 0 -q offset-33 -gem-quality-threshold 26
Microbial species abundance was measured as the fraction of reads that mapped to a single species in the database. An EM algorithm adapted from Pathoscope^59 was employed to determine the correct assignment of reads that mapped to more than one species. We considered only species for which at least 10% of the genome was covered (each coverage bin was 10,000-bp long) in at least one of the growth conditions (saccharin, water, or glucose). Reads mapped to the gut microbial gene catalogue were assigned a KEGG^34,35 ID according to the mapping available with the catalogue. Genes were subsequently mapped to KEGG pathways, and only pathways whose gene coverage was above 0.2 were included.

O=C1NS(=O)(=O)c2ccccc21 [saccharin]
changes in microbial relative species abundance (11 weeks commercial saccharin vs glucose or water, F-test p<10^−10): largest changes | Fold change (week 11/week 0) in relative species abundance (Symbol BACT_9, Number 996): 0.65 | Fold change (week 11/week 0) in relative species abundance (Symbol BACT_22, Number 639): 0.36 | Fold change (week 11/week 0) in relative species abundance (Symbol BACT_38, Number 780): 0.50 | Fold change (week 11/week 0) in relative species abundance (Symbol BACT_49, Number 420): 0.02 | Fold change (week 11/week 0) in relative species abundance (Symbol BACT_60, Number 752): 0.71 | Fold change (week 11/week 0) in relative species abundance (Symbol BACT_65, Number 918): 6.73 | Fold change (week 11/week 0) in relative species abundance (Symbol BACT_70, Number 863): 9.41 | Fold change (week 11/week 0) in relative species abundance (Symbol BACT_85, Number 934): 0.45 | Fold change (week 11/week 0) in relative species abundance (Symbol BACT_142, Number 843): 0.42 | Fold change (week 11/week 0) in relative species abundance (Symbol BACT_170, Number 883): 0.48 | Fold change (week 11/week 0) in relative species abundance (Symbol BACT_171, Number 748): 0.56 | Fold change (week 11/week 0) in relative species abundance (Symbol BACT_172, Number 768): 1.03 | Fold change (week 11/week 0) in relative species abundance (Symbol BACT_178, Number 921): 0.28 | Fold change (week 11/week 0) in relative species abundance (Symbol BACT_181, Number 767): 0.40 | Fold change (week 11/week 0) in relative species abundance (Symbol BACT_185, Number 633): 8.79 | Fold change (week 11/week 0) in relative species abundance (Symbol BACT_189, Number 636): 1.92 | Fold change (week 11/week 0) in relative species abundance (Symbol BACT_192, Number 995): 0.36 | Fold change (week 11/week 0) in relative species abundance (Symbol BACT_194, Number 846): 0.51 | Fold change (week 11/week 0) in relative species abundance (Symbol BACT_195, Number 523): 0.40 | Fold change (week 11/week 0) in relative species abundance (Symbol BACT_196, Number 395): 12.66 | Fold change (week 11/week 0) in relative species abundance (Symbol BACT_225, Number 953): 0.44 | Fold change (week 11/week 0) in relative species abundance (Symbol BACT_258, Number 620): 0.55 | Fold change (week 11/week 0) in relative species abundance (Symbol BACT_260, Number 1443): 0.55 | Fold change (week 11/week 0) in relative species abundance (Symbol BACT_300, Number 769): 0.50 | Fold change (week 11/week 0) in relative species abundance (Symbol BACT_371, Number 960): 2.13 | Fold change (week 11/week 0) in relative species abundance (Symbol BACT_374, Number 805): 0.34 | Fold change (week 11/week 0) in relative species abundance (Symbol BACT_392, Number 915): 0.66 | Fold change (week 11/week 0) in relative species abundance (Symbol BACT_393, Number 932): 0.53 | Fold change (week 11/week 0) in relative species abundance (Symbol BACT_397, Number 914): 0.45 | Fold change (week 11/week 0) in relative species abundance (Symbol BACT_409, Number 845): 9.91 | Fold change (week 11/week 0) in relative species abundance (Symbol BACT_413, Number 847): 1.25 | Fold change (week 11/week 0) in relative species abundance (Symbol BACT_418, Number 749): 0.22 | Fold change (week 11/week 0) in relative species abundance (Symbol BACT_419, Number 920): 0.15 | Fold change (week 11/week 0) in relative species abundance (Symbol BACT_420, Number 922): 0.33 | Fold change (week 11/week 0) in relative species abundance (Symbol BACT_424, Number 906): 0.29 | Fold change (week 11/week 0) in relative species abundance (Symbol BACT_449, Number 772): 2.90 | Fold change (week 11/week 0) in relative species abundance (Symbol BACT_463, Number 719): 0.00 | Fold change (week 11/week 0) in relative species abundance (Symbol BACT_496, Number 765): 2.97 | Fold change (week 11/week 0) in relative species abundance (Symbol BACT_499, Number 35): 0.24 | Fold change (week 11/week 0) in relative species abundance (Symbol BACT_511, Number 591): 3.71 | Fold change (week 11/week 0) in relative species abundance (Symbol BACT_535, Number 940): 0.14 | Fold change (week 11/week 0) in relative species abundance (Symbol BACT_539, Number 117): 0.22 | Fold change (week 11/week 0) in relative species abundance (Symbol BACT_551, Number 907): 0.62 | Fold change (week 11/week 0) in relative species abundance (Symbol BACT_572, Number 963): 0.70 | Fold change (week 11/week 0) in relative species abundance (Symbol BACT_586, Number 849): 0.70 | Fold change (week 11/week 0) in relative species abundance (Symbol BACT_627, Number 886): 0.16 | Fold change (week 11/week 0) in relative species abundance (Symbol BACT_632, Number 871): 3.17 | Fold change (week 11/week 0) in relative species abundance (Symbol BACT_681, Number 125): 0.00 | Fold change (week 11/week 0) in relative species abundance (Symbol BACT_686, Number 1007): 0.00 | Fold change (week 11/week 0) in relative species abundance (Symbol BACT_722, Number 377): 1.88 | Fold change (week 11/week 0) in relative species abundance (Symbol BACT_769, Number 610): 3.38 | Fold change (week 11/week 0) in relative species abundance (Symbol BACT_843, Number 1318): 0.16 | Fold change (week 11/week 0) in relative species abundance (Symbol BACT_850, Number 394): 2.51 | Fold change (week 11/week 0) in relative species abundance (Symbol BACT_852, Number 766): 0.77 | Fold change (week 11/week 0) in relative species abundance (Symbol BACT_855, Number 835): 0.34 | Fold change (week 11/week 0) in relative species abundance (Symbol BACT_890, Number 163): 0.15 | Fold change (week 11/week 0) in relative species abundance (Symbol BACT_913, Number 904): 1.10 | Fold change (week 11/week 0) in relative species abundance (Symbol BACT_915, Number 1315): 10.39 | Fold change (week 11/week 0) in relative species abundance (Symbol BACT_931, Number 1088): 0.53 | Fold change (week 11/week 0) in relative species abundance (Symbol BACT_1001, Number 933): 0.75 | Fold change (week 11/week 0) in relative species abundance (Symbol BACT_1025, Number 751): 0.53 | Fold change (week 11/week 0) in relative species abundance (Symbol BACT_1043, Number 948): 1.08 | Fold change (week 11/week 0) in relative species abundance (Symbol BACT_1083, Number 1008): 0.00 | Fold change (week 11/week 0) in relative species abundance (Symbol BACT_1131, Number 942): 0.34 | Fold change (week 11/week 0) in relative species abundance (Symbol BACT_1311, Number 1259): 0.34 | Fold change (week 11/week 0) in relative species abundance (Symbol BACT_1314, Number 1399): 0.67 | Fold change (week 11/week 0) in relative species abundance (Symbol BACT_1315, Number 1395): 0.46 | Fold change (week 11/week 0) in relative species abundance (Symbol BACT_1321, Number 1255): 3.20 | Fold change (week 11/week 0) in relative species abundance (Symbol BACT_1322, Number 1396): 0.91 | Fold change (week 11/week 0) in relative species abundance (Symbol BACT_1324, Number 1264): 12.01 | Fold change (week 11/week 0) in relative species abundance (Symbol BACT_1348, Number 1311): 9.24 | Fold change (week 11/week 0) in relative species abundance (Symbol BACT_1378, Number 1375): 141.18 | Fold change (week 11/week 0) in relative species abundance (Symbol BACT_1427, Number 1266): 0.00 | Fold change (week 11/week 0) in relative species abundance (Symbol BACT_1442, Number 1400): 2.16 | Fold change (week 11/week 0) in relative species abundance (Symbol BACT_1457, Number 1337): 0.23 | Fold change (week 11/week 0) in relative species abundance (Symbol BACT_1496, Number 1321): 2.65 | Fold change (week 11/week 0) in relative species abundance (Symbol BACT_1501, Number 1331): 0.17 | Fold change (week 11/week 0) in relative species abundance (Symbol BACT_1526, Number 1227): 0.07 | Fold change (week 11/week 0) in relative species abundance (Symbol BACT_1555, Number 1469): 0.21 | Fold change (week 11/week 0) in relative species abundance (Symbol BACT_1569, Number 1462): 0.30 | Fold change (week 11/week 0) in relative species abundance (Symbol BACT_1595, Number 1533): 0.00 | Fold change (week 11/week 0) in relative species abundance (Symbol BACT_1596, Number 1502): 0.12 | Fold change (week 11/week 0) in relative species abundance (Symbol BACT_1656, Number 1503): 0.12 | Fold change (week 11/week 0) in relative species abundance (Symbol BACT_3004, Number 5797): 11.92 | Fold change (week 11/week 0) in relative species abundance (Symbol BACT_3005, Number 5799): 1.01 | Fold change (week 11/week 0) in relative species abundance (Symbol BACT_3007, Number 5798): 1.89 | Fold change (week 11/week 0) in relative species abundance (Symbol BACT_3024, Number 5841): 0.02 | Fold change (week 11/week 0) in relative species abundance (Symbol BACT_3045, Number 5818): 0.01 | Fold change (week 11/week 0) in relative species abundance (Symbol BACT_3056, Number 5836): 0.00 | Fold change (week 11/week 0) in relative species abundance (Symbol BACT_3058, Number 5816): 0.11 | Fold change (week 11/week 0) in relative species abundance (Symbol BACT_3060, Number 5821): 0.00 | Fold change (week 11/week 0) in relative species abundance (Symbol BACT_3062, Number 5800): 0.99 | Fold change (week 11/week 0) in relative species abundance (Symbol BACT_3085, Number 5842): 0.03 | Fold change (week 11/week 0) in relative species abundance (Symbol BACT_3092, Number 5793): 2.71 | Fold change (week 11/week 0) in relative species abundance (Symbol BACT_4040, Number 5769): 1.16 | Fold change (week 11/week 0) in relative species abundance (Symbol BACT_4042, Number 5770): 0.04 | Fold change (week 11/week 0) in relative species abundance (Symbol EUKY_22, Number 1758): 0.45 | Fold change (week 11/week 0) in relative species abundance (Symbol EUKY_141, Number 1875): 0.53 | Fold change (week 11/week 0) in relative species abundance (Symbol EUKY_222, Number 1954): 0.49 | Fold change (week 11/week 0) in relative species abundance (Symbol V1RL3522, Number 3522): 0.02
